The text below walks through data of paper PMC9851200, “Multiparameter phenotypic screening for endogenous TFEB and TFE3 translocation identifies novel chemical series modulating lysosome function” (Autophagy, 2022).

Holding throughout (type): binding
Test [1] addresses kinases (KINOMEscan panel) (Homo sapiens, UniProt O75116). Conditions: kinase ROCK2; NEW KINOMEscan.
Test [2] deals with kinases (KINOMEscan panel) (Homo sapiens, UniProt O95819). Conditions: MAP4K4; NEW KINOMEscan.
The target of test [3] is kinases (KINOMEscan panel) (Homo sapiens, UniProt P10721, A829P). The following applies: NEW KINOMEscan.
The target in test [4] is kinases (KINOMEscan panel) (Homo sapiens, UniProt P11309). The following applies: NEW KINOMEscan.
Chain of kinases (KINOMEscan panel) (Homo sapiens, UniProt P11309) (P11309 whole entry): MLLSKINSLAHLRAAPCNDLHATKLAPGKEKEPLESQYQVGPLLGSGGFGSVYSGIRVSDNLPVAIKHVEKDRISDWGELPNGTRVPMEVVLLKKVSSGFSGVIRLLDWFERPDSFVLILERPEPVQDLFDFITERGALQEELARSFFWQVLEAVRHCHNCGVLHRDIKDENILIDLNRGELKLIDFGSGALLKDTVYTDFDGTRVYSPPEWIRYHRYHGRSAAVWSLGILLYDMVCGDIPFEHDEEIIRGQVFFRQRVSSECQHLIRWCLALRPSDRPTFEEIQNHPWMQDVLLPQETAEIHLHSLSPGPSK
Test [5] has as its target kinases (KINOMEscan panel) (Homo sapiens, UniProt P21802). The following applies: kinase FGFR2; NEW KINOMEscan.
In test [6] the target is T1, kinases (KINOMEscan panel) (Homo sapiens, UniProt Q04771).
T1 sequence (Q04771 21-509): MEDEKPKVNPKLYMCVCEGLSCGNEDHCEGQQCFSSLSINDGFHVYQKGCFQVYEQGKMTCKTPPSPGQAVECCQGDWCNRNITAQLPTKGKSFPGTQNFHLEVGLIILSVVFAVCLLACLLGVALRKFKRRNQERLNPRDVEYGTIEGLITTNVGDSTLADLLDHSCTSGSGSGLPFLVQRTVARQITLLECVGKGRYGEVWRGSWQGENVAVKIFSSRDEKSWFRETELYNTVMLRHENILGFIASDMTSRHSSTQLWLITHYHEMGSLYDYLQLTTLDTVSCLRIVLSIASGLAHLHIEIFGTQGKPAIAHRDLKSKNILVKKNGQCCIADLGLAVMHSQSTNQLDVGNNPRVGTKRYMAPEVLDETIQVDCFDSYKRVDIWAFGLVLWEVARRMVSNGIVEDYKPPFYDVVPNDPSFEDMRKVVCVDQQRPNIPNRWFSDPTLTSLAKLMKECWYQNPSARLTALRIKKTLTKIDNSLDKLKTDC
The following applies: ACVR1; NEW KINOMEscan.

The target of test [7] is T2, kinases (KINOMEscan panel) (Homo sapiens, UniProt Q13546).
T2 sequence (Q13546 1-671): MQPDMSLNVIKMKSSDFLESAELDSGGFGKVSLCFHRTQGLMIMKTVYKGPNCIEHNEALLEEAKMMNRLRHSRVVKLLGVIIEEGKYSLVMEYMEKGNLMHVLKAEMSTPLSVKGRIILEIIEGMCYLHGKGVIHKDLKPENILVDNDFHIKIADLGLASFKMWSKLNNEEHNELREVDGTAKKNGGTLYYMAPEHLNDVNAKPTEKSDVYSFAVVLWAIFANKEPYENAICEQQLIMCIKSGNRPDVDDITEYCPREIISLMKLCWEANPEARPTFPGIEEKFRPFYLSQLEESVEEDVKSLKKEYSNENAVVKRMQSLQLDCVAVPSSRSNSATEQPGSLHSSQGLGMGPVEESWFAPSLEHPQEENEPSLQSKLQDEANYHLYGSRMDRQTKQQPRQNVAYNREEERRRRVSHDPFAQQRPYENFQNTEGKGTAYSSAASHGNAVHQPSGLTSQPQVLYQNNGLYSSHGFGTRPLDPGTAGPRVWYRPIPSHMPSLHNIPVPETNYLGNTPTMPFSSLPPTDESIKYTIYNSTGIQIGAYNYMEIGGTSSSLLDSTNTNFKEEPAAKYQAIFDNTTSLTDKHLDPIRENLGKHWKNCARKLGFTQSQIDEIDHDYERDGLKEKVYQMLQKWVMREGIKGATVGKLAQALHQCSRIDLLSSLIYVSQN
The following applies: kinase RIPK1; NEW KINOMEscan.

Test [8] has as its target T3, kinases (KINOMEscan panel) (Homo sapiens, UniProt Q13873).
T3 sequence (Q13873 27-1038): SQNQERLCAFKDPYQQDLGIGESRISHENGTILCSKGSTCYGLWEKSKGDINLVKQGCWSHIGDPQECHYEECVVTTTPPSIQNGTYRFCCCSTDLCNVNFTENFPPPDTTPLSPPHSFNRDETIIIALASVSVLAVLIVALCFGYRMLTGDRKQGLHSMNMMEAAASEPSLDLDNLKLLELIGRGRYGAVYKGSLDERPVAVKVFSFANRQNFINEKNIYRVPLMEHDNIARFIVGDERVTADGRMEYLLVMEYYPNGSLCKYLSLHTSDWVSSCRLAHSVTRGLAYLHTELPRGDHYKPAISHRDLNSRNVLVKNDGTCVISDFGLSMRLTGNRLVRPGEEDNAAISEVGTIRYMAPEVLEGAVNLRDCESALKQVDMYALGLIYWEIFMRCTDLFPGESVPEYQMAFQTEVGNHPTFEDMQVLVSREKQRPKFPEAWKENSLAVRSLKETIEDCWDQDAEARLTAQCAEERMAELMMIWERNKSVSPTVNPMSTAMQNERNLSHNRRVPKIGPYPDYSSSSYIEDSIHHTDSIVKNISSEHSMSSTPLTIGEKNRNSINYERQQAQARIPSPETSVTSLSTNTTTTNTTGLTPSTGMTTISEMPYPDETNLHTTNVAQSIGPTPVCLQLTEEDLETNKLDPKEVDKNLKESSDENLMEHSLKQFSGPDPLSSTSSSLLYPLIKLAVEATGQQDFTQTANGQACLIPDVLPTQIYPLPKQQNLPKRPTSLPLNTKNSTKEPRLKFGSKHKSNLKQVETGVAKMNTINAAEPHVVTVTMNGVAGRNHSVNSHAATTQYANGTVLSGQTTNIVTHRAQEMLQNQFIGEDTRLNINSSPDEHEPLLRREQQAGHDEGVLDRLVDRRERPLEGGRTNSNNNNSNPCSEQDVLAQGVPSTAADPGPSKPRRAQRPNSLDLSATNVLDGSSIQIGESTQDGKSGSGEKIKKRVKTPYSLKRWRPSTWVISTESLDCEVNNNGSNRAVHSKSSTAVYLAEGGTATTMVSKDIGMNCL
Conditions: kinase BMPR2; NEW KINOMEscan.

Test [9] concerns the target kinases (KINOMEscan panel) (Homo sapiens, UniProt Q16584). The following applies: kinase MAP3K11; NEW KINOMEscan.
In test [10] the target is kinases (KINOMEscan panel) (Homo sapiens, UniProt Q9BUB5). Conditions: NEW KINOMEscan.
Chain of kinases (KINOMEscan panel) (Homo sapiens, UniProt Q9BUB5) (Q9BUB5 whole entry): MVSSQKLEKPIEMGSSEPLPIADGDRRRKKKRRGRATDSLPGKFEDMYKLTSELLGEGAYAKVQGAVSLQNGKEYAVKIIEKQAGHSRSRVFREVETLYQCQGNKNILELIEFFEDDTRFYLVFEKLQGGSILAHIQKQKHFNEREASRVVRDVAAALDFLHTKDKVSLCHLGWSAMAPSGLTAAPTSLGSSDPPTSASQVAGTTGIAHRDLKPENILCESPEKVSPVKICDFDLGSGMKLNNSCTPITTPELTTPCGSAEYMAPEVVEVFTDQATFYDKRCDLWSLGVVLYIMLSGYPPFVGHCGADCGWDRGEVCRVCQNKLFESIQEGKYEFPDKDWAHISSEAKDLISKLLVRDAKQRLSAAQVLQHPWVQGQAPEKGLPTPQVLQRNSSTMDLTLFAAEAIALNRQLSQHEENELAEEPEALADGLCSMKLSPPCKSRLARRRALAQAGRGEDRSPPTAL

Chain of kinases (KINOMEscan panel) (Homo sapiens, UniProt O75116) (O75116 whole entry): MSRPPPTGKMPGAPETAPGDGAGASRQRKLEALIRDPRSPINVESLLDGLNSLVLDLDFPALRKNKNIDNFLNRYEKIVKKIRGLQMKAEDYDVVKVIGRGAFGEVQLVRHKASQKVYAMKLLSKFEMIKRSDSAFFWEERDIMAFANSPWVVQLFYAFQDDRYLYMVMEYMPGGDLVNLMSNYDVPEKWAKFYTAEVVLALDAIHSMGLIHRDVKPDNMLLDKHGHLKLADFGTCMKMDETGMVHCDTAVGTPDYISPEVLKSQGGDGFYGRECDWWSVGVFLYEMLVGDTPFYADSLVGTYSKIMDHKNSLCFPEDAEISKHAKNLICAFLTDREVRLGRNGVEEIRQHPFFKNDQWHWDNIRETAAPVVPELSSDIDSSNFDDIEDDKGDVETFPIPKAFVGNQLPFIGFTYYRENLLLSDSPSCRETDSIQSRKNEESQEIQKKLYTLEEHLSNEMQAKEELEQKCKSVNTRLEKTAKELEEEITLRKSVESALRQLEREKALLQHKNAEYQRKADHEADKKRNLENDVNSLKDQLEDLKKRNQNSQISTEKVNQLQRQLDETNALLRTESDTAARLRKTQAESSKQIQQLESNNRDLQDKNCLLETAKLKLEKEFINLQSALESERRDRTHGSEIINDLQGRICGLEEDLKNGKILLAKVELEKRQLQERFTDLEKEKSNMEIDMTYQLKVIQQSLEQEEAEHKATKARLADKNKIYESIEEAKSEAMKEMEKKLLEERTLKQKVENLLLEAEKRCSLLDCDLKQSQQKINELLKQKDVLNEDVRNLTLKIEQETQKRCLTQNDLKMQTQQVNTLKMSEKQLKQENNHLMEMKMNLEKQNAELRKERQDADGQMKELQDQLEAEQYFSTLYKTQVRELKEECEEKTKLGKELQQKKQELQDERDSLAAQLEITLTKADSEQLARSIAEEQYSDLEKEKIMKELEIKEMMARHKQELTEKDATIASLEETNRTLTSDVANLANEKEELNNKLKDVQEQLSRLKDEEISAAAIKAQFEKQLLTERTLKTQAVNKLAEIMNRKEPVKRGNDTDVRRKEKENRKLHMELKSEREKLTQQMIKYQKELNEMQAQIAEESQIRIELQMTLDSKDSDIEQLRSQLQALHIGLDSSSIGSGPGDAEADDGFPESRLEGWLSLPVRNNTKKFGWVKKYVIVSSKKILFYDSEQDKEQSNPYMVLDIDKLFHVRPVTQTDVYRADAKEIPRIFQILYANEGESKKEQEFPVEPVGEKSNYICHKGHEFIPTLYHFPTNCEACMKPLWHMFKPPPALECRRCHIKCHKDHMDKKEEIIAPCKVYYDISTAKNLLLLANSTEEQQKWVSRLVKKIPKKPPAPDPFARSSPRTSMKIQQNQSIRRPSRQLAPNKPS
Chain of kinases (KINOMEscan panel) (Homo sapiens, UniProt O95819) (O95819 whole entry): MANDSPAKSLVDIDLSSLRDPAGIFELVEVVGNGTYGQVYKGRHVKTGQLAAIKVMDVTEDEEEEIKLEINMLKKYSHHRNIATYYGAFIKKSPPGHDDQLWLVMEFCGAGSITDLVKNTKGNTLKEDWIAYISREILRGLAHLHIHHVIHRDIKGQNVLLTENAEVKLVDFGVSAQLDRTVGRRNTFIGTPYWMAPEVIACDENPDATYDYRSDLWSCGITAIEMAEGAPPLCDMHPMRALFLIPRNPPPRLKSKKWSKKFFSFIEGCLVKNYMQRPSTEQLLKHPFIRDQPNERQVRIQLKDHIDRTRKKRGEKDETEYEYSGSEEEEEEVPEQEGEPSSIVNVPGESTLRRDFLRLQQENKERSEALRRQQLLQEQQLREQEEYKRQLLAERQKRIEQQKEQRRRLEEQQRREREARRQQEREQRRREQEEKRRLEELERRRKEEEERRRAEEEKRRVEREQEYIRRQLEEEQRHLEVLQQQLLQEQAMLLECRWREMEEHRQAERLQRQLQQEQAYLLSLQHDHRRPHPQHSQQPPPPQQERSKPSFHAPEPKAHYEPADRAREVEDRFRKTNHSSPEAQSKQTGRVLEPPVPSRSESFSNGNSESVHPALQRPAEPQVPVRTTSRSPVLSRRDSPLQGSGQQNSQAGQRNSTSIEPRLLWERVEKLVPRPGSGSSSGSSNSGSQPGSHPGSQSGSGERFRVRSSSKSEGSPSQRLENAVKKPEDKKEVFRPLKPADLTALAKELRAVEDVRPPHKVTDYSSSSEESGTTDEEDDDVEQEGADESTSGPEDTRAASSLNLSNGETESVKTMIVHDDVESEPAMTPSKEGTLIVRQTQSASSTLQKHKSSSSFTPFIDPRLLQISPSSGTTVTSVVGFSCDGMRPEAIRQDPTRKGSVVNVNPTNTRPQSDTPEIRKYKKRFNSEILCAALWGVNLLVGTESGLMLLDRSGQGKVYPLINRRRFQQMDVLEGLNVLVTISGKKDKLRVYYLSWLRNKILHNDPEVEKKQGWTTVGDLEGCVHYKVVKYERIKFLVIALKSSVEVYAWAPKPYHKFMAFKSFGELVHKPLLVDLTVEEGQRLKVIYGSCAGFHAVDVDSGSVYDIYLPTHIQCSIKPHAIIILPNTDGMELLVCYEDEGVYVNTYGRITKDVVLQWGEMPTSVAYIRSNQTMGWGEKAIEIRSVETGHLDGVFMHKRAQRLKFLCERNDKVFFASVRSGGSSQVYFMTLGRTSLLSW
Chain of kinases (KINOMEscan panel) (Homo sapiens, UniProt P21802) (P21802 22-821): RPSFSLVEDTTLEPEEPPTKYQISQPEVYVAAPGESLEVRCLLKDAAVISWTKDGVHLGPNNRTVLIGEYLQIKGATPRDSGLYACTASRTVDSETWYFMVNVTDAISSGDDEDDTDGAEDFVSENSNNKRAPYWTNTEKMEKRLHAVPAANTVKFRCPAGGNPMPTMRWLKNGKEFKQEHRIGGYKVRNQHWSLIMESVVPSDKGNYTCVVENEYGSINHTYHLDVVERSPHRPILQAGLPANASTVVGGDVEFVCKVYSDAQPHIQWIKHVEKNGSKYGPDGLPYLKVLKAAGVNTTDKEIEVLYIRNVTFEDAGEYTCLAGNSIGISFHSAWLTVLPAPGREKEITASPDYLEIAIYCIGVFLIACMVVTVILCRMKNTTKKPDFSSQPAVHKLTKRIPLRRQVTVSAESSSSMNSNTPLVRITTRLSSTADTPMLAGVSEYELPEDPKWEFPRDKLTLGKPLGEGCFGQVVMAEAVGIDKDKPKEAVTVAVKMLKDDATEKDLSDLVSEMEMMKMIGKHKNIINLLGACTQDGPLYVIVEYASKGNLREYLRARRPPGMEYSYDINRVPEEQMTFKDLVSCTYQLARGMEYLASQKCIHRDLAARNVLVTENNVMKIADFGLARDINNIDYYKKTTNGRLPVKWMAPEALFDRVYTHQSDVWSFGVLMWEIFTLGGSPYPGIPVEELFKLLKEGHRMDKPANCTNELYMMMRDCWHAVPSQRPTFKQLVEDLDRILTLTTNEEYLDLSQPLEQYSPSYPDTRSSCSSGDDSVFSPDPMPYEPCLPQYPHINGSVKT
Chain of kinases (KINOMEscan panel) (Homo sapiens, UniProt Q16584) (Q16584 whole entry): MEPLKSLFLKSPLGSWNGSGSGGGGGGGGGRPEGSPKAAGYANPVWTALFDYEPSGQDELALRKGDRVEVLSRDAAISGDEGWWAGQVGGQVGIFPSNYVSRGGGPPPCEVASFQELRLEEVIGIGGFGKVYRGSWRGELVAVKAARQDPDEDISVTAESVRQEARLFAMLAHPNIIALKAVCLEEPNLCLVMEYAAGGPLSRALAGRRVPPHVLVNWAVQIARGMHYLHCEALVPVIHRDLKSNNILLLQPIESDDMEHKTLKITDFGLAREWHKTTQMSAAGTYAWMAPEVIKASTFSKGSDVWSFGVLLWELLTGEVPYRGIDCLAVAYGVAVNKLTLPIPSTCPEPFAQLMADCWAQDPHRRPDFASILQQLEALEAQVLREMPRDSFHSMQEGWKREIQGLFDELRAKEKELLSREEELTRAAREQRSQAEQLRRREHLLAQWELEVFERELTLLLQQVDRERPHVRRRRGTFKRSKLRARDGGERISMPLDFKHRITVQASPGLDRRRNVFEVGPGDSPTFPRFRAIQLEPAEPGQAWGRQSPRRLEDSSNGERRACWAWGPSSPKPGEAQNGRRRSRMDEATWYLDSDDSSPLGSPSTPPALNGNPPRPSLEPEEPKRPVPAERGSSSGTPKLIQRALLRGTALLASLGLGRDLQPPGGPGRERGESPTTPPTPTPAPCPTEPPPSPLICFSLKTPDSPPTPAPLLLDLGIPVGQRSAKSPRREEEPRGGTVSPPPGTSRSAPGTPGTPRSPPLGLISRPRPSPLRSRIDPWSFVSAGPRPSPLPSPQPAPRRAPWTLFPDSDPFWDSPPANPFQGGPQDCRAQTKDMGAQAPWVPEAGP

As to `Cc1cccc(-c2nc(N(C)c3ccc4ncsc4c3)c3ccccc3n2)n1` [NK-161], in test [1], the “KINOMEscan ROCK2” value was determined as 0. Further, the “KINOMEscan MAP4K4” value in [2] was found to be 0. The “KINOMEscan KIT(A829P)” value in [3] came out at 19. The “KINOMEscan PIM1” value in test [4] is 29. In [5], the “KINOMEscan FGFR2” value was 9. For the same molecule, in test [6], the “KINOMEscan ACVR1” value is listed as 0. In addition, the “KINOMEscan RIPK1” value in test [7] is 0. In test [8], the “KINOMEscan BMPR2” value was 18. In addition, the “KINOMEscan MAP3K11” value in test [9] turned out to be 0. Also, the “KINOMEscan MKNK1” value in test [10] is 7.

Take `Cc1cccc(-c2nc(Nc3ccc4nn(C)cc4c3)c3ccccc3n2)n1` [NK167]: the “KINOMEscan ROCK2” value in test [1] was determined as 0. Further, in [2], the “KINOMEscan MAP4K4” value was 1. The “KINOMEscan KIT(A829P)” value in test [3] worked out at 0. In addition, the “KINOMEscan PIM1” value in test [4] turned out to be 2. In test [5], the “KINOMEscan FGFR2” value is given as 0. Also, the “KINOMEscan ACVR1” value in test [6] was 0. Further, the “KINOMEscan RIPK1” value in [7] is 2. Besides, in test [8], the “KINOMEscan BMPR2” value was determined as 0. For the same molecule, the “KINOMEscan MAP3K11” value in test [9] is 0. The “KINOMEscan MKNK1” value in [10] is listed as 0.
